What was measured:
Experiment in all cases: KINOMEscan competition binding
Settings in all cases: compound 10.0 µM
AAK1 (human) = AAK1 (human) (UniProt Q2M2I8)
ABL2 (human) = ABL2 (human) (UniProt P42684)
ACVR1 (human) = ACVR1 (human) (UniProt Q04771)
ADCK4 (human) = ADCK4 (human) (UniProt Q96D53)
AXL (human) = AXL (human) (UniProt P30530)
CAMK1G (human) = CAMK1G (human) (UniProt Q96NX5)
EPHA7 (human) = EPHA7 (human) (UniProt Q15375)
EPHB4 (human) = EPHB4 (human) (UniProt P54760)
FGFR4 (human) = FGFR4 (human) (UniProt P22455)
[1] = test system: FLT3 (human), P36888 [ITD]
HCK (human) = HCK (human) (UniProt P08631)
IGF1R (human) = IGF1R (human) (UniProt P08069)
IKBKB (human) = IKBKB (human) (UniProt O14920)
IKBKB (human), sequence (O14920 whole entry, looked up): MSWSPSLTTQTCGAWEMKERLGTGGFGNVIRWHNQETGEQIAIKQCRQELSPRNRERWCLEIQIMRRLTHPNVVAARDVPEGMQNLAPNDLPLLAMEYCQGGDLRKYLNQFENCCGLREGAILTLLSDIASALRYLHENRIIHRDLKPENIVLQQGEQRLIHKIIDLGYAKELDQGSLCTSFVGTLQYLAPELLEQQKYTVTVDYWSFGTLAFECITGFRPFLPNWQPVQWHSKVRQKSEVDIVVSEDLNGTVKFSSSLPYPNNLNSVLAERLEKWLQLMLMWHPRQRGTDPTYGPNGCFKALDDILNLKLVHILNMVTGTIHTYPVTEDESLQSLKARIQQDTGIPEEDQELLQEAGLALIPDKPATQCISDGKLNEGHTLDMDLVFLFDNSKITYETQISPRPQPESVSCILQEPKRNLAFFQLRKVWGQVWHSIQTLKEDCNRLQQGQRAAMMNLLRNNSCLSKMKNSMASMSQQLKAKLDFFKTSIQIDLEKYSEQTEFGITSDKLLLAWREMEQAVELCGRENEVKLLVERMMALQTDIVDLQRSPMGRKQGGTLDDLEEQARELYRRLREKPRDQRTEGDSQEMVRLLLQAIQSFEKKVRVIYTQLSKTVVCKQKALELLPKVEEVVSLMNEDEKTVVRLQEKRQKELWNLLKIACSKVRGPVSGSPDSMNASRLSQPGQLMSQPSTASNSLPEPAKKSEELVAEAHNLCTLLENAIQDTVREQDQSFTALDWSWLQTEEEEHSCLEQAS

ITK (human) = ITK (human) (UniProt Q08881)
ITK (human), sequence (Q08881 whole entry, looked up): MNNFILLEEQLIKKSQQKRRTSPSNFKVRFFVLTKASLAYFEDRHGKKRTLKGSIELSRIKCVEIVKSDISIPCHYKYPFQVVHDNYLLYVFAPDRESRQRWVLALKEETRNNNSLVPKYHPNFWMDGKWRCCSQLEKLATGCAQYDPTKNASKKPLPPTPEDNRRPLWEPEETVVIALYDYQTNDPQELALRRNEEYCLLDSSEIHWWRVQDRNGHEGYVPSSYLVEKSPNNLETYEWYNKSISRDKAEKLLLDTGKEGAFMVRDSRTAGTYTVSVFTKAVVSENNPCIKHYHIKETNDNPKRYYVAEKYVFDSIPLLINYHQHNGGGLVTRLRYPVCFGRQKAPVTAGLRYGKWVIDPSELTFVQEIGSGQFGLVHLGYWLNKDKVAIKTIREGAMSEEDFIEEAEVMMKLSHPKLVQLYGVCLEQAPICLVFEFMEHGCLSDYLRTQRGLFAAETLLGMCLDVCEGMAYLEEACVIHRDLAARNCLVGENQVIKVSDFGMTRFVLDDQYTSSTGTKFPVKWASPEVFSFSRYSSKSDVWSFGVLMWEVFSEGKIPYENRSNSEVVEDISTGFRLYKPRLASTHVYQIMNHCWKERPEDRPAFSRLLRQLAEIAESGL

[2] = target: JAK1 JH2 pseudokinase (human) (UniProt P23458)
LIMK1 (human) = LIMK1 (human) (UniProt P53667)
LIMK1 (human), sequence (P53667 whole entry, looked up): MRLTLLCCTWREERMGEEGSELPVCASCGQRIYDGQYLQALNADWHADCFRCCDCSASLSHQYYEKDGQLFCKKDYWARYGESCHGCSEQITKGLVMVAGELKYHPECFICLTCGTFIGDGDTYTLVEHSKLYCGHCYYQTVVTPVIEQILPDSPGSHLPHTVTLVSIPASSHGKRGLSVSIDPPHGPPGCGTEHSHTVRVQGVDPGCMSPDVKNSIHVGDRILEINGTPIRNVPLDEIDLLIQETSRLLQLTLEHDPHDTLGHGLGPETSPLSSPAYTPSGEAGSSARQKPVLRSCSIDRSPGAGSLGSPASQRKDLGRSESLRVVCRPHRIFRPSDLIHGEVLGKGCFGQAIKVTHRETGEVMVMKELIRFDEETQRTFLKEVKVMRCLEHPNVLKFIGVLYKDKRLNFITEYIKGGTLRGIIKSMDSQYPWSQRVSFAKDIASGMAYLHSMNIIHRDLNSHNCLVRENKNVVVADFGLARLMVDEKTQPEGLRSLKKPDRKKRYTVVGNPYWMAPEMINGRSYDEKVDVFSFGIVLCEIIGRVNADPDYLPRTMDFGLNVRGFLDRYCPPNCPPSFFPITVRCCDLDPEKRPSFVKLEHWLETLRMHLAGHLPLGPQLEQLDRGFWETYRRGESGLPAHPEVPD

MARK4 (human) = MARK4 (human) (UniProt Q96L34)
MYO3A (human) = MYO3A (human) (UniProt Q8NEV4)
NEK1 (human) = NEK1 (human) (UniProt Q96PY6)
PDPK1 (human) = PDPK1 (human) (UniProt O15530)
PKMYT1 (human) = PKMYT1 (human) (UniProt Q99640)
PKN1 (human) = PKN1 (human) (UniProt Q16512)
PKN2 (human) = PKN2 (human) (UniProt Q16513)
PLK4 (human) = PLK4 (human) (UniProt O00444)
PRKCD (human) = PRKCD (human) (UniProt Q05655)
PRKD3 (human) = PRKD3 (human) (UniProt O94806)
PTK2 (human) = PTK2 (human) (UniProt Q05397)
RIOK3 (human) = RIOK3 (human) (UniProt O14730)
RPS6KA2 KD2 (human) = RPS6KA2 KD2 (human) (UniProt Q15349)
RPS6KA4 KD1 (human) = RPS6KA4 KD1 (human) (UniProt O75676)
SRPK3 (human) = SRPK3 (human) (UniProt Q9UPE1)
STK25 (human) = STK25 (human) (UniProt O00506)
STK25 (human), sequence (O00506 whole entry, looked up): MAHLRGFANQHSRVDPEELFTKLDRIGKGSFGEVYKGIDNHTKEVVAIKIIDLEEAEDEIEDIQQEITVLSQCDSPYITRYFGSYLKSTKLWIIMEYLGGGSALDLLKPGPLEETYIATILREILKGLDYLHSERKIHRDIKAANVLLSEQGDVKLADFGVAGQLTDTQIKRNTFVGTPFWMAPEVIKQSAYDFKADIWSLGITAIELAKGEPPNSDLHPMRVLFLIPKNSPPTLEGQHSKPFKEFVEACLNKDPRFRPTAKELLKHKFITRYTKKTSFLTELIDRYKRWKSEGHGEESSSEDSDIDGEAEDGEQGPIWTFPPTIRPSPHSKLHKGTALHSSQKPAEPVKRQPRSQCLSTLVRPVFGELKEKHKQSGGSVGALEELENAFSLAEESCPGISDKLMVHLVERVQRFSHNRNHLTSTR

STK3 (human) = STK3 (human) (UniProt Q13188)
STK3 (human), sequence (Q13188 whole entry, looked up): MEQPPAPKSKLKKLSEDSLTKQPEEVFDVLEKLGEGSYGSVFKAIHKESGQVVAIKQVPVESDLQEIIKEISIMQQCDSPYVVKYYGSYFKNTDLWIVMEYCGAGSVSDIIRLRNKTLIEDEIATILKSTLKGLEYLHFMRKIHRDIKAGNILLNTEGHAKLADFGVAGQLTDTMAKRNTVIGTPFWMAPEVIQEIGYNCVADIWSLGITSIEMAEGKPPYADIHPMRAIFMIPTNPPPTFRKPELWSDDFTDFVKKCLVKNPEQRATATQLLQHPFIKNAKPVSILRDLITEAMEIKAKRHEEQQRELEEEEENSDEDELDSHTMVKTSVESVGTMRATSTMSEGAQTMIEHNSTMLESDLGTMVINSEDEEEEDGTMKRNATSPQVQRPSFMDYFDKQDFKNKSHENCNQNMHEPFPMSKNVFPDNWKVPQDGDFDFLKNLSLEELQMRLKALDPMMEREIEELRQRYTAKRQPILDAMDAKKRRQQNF

STK32C (human) = STK32C (human) (UniProt Q86UX6)
STK32C (human), sequence (Q86UX6 whole entry, looked up): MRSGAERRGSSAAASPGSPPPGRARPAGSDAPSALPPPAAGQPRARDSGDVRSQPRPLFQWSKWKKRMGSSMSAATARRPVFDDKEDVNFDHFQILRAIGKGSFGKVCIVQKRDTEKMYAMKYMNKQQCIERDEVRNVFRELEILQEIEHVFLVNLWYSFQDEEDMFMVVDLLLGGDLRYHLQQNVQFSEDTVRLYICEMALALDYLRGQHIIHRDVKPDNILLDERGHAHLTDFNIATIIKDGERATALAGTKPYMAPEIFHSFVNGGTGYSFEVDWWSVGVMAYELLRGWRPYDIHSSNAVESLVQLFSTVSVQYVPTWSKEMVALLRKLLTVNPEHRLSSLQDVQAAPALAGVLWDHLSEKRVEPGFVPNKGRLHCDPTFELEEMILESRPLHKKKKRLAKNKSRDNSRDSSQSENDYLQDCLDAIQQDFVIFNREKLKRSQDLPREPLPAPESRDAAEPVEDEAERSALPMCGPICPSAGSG

TEC (human) = TEC (human) (UniProt P42680)
TGFBR1 (human) = TGFBR1 (human) (UniProt P36897)
TGFBR1 (human), sequence (P36897 whole entry, looked up): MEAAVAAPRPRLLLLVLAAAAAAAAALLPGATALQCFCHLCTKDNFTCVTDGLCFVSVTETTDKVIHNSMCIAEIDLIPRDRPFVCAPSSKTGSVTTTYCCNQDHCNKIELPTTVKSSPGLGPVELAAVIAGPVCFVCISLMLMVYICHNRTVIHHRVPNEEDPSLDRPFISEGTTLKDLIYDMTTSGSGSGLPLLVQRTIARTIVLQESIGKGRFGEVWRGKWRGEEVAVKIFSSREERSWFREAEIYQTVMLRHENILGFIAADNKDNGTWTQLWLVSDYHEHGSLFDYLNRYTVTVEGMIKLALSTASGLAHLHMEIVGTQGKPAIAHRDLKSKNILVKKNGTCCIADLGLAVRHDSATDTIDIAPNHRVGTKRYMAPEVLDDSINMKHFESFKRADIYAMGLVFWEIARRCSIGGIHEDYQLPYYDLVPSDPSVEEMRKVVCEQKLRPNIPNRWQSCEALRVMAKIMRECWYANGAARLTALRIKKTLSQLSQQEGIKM

TNK1 (human) = TNK1 (human) (UniProt Q13470)
ULK2 (human) = ULK2 (human) (UniProt Q8IYT8)
WEE2 (human) = WEE2 (human) (UniProt P0C1S8)
ZAP70 (human) = ZAP70 (human) (UniProt P43403)

AAK1 (human), sequence (Q2M2I8 whole entry, looked up): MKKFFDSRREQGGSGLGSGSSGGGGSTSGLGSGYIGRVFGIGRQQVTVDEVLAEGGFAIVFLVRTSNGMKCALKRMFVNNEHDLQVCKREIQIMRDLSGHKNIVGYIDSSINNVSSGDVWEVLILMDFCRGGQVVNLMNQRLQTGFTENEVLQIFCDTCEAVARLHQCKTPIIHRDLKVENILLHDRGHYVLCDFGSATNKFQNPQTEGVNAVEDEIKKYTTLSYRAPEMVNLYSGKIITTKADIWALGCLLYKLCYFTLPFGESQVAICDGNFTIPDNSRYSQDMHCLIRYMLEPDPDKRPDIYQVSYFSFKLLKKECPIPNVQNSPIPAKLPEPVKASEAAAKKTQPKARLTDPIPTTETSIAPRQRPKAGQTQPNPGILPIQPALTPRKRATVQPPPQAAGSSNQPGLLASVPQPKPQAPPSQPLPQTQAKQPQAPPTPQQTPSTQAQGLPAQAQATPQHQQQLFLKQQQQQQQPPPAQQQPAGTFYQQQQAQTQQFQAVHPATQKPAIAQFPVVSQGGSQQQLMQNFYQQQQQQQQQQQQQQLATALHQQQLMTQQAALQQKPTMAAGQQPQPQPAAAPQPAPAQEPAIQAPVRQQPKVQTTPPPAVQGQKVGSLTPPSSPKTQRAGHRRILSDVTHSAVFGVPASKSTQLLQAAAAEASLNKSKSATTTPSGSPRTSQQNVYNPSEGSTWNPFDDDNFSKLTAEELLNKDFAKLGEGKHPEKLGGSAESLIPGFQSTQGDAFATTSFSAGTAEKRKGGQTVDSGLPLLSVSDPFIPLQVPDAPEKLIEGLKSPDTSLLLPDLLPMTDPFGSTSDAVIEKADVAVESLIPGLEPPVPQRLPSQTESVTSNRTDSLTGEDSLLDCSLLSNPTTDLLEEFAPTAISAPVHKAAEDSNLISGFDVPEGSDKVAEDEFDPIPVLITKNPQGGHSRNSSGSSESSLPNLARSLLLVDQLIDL

COc1cc(C(=O)NC2CCN(C)CC2)ccc1Nc1ncc2c(n1)N(C1CCCC1)C(C)CC(=O)N2C (stereo not given)
kinase still bound, per cent of control (AAK1 (human)): 100% | kinase still bound, per cent of control (ABL2 (human)): 100% | kinase still bound, per cent of control (ACVR1 (human)): 100% | kinase still bound, per cent of control (ADCK4 (human)): 100% | kinase still bound, per cent of control (AXL (human)): 100% | kinase still bound, per cent of control (CAMK1G (human)): 100% | kinase still bound, per cent of control (EPHA7 (human)): 100% | kinase still bound, per cent of control (EPHB4 (human)): 100% | kinase still bound, per cent of control (FGFR4 (human)): 100% | kinase still bound, per cent of control [1]: 100% | kinase still bound, per cent of control (HCK (human)): 100% | kinase still bound, per cent of control (IGF1R (human)): 32% | kinase still bound, per cent of control (IKBKB (human)): 100% | kinase still bound, per cent of control (ITK (human)): 100% | kinase still bound, per cent of control [2]: 22% | kinase still bound, per cent of control (LIMK1 (human)): 100% | kinase still bound, per cent of control (MARK4 (human)): 100% | kinase still bound, per cent of control (MYO3A (human)): 100% | kinase still bound, per cent of control (NEK1 (human)): 100% | kinase still bound, per cent of control (PDPK1 (human)): 100% | kinase still bound, per cent of control (PKMYT1 (human)): 100% | kinase still bound, per cent of control (PKN1 (human)): 100% | kinase still bound, per cent of control (PKN2 (human)): 100% | kinase still bound, per cent of control (PLK4 (human)): 100% | kinase still bound, per cent of control (PRKCD (human)): 100% | kinase still bound, per cent of control (PRKD3 (human)): 32% | kinase still bound, per cent of control (PTK2 (human)): 0.4% | kinase still bound, per cent of control (RIOK3 (human)): 100% | kinase still bound, per cent of control (RPS6KA2 KD2 (human)): 5.8% | kinase still bound, per cent of control (RPS6KA4 KD1 (human)): 100% | kinase still bound, per cent of control (SRPK3 (human)): 100% | kinase still bound, per cent of control (STK25 (human)): 100% | kinase still bound, per cent of control (STK3 (human)): 100% | kinase still bound, per cent of control (STK32C (human)): 100% | kinase still bound, per cent of control (TEC (human)): 100% | kinase still bound, per cent of control (TGFBR1 (human)): 100% | kinase still bound, per cent of control (TNK1 (human)): 100% | kinase still bound, per cent of control (ULK2 (human)): 100% | kinase still bound, per cent of control (WEE2 (human)): 100% | kinase still bound, per cent of control (ZAP70 (human)): 100%

From the kinase profiling compilation of Christmann-Franck et al. (2016)
